Our source for the IC50 values is patent US12122780B2, “Pyrimidinyl group-containing tricyclic compound serving as c-Met inhibitor” (JIANGSU AOSAIKANG PHARMACEUTICAL CO., LTD., priority 2019, dated 2024).

Each structure is given as a SMILES string. Structures can show the parent of a compound that is named as a salt.

The target of one experiment is c-Met enzyme (Homo sapiens (Human), UniProt P08581). In words: c-Met enzyme activity inhibition (Promega c-Met Kinase Enzyme System, ADP-Glo). To be noted: 10 μM ATP, 60 min, 30° C. The experiment is classed as biochemical. On the procedure: To detect the inhibitory effect of the compounds on c-Met enzyme activity.
The c-Met Kinase Enzyme System was purchased from Promega. Envision multi-label analyzer (PerkinElmer).
The kinase buffer in the kit was used to dilute the enzyme, substrate, ATP and inhibitor.
The compound to be tested was diluted 5-fold to the eighth concentration with a discharge gun, i.e., from 50 μM to […], with a final DMSO concentration of 5%, and double duplicate wells experiment was set. 1 μL of each concentration gradient of the inhibitor, 2 μL of c-Met enzyme (4 ng), 2 μL of a mixture of the substrate and ATP (10 μM ATP, 0.2 μg/μL poly E4Y1) were added to the microplate, and the final concentration gradient of the compound of 10 μM was diluted to 0.13 nM. The reaction system was placed at 30° C. and the reaction was carried out for 60 minutes. When the reaction was completed, 5 μL of ADP-Glo reagent was added to each well and the reaction was carried out at 30° C. for another 40 minutes, when the reaction was completed, 10 μL of kinase detection reagent was added to each well, then the reaction was carried out at 30° C. for still another 30 minutes, chemiluminescence was read by the PerkinElmer Envision multi-label analyzer with an integration time of 0.5 seconds.
Using the equation (Sample-Min)/(Max-Min)*100% to convert the original data to the inhibition rate, the IC50 value can be obtained by curve fitting with four parameters (obtained by log(inhibitor) vs. response in GraphPad Prism—Variable slope mode).

Another experiment concerns EBC-1 cells. Put plainly: EBC-1 cell proliferation experiment (CellTiter-Glo). In kind it is cell-based, human. As to conditions: 3 days. How it is done: MEM medium, fetal bovine serum, penicillin/streptomycin antibiotics were purchased from Wisent. EBC-1 cell line was purchased from Nanjing COBIO Bioscience Co., LTD. Envision multi-label analyzer (PerkinElmer).
EBC-1 cells were seeded in a white 96-well plate, […] cell suspension per well, which contained 3000 EBC-1 cells. The cell plate was placed in a carbon dioxide incubator for overnight culture.
The compound to be tested was diluted 5-fold to the eighth concentration with a discharge gun, i.e., from 2 mM to […], and double duplicate wells experiment was set. 78 μL of the medium was added to the middle plate, then 2 μL per well of gradient diluted compound was transferred to the corresponding position on the middle plate, then mixed well and 20 μL per well was transferred to the cell plate. The cell plate was cultured in a carbon dioxide incubator for 3 days. Another cell plate was prepared and the signal values were read on the day of dosing as […] to be used in the data analysis. 25 μL of Promega CellTiter-Glo was added to each well of this cell plate, and incubated at room temperature for 10 minutes to stabilize the luminescence signal. Readings were taken using a PerkinElmer Envision multi-label analyzer.
25 μL of Promega CellTiter-Glo reagent was added to each well of this cell plate, and incubated at room temperature for 10 minutes to stabilize the luminescence signal. Readings were taken using a PerkinElmer Envision multi-label analyzer.
Using the equation (Sample-Min)/(Max-Min)*100% to convert the original data to the inhibition rate, the IC50 value can be obtained by curve fitting with four parameters (obtained by “log(inhibitor) vs. response in GraphPad Prism—Variable slope mode).
Background: ATP-based viability assays read luminescence as a measure of living cells.

c-Met enzyme, sequence (P08581 956-1390): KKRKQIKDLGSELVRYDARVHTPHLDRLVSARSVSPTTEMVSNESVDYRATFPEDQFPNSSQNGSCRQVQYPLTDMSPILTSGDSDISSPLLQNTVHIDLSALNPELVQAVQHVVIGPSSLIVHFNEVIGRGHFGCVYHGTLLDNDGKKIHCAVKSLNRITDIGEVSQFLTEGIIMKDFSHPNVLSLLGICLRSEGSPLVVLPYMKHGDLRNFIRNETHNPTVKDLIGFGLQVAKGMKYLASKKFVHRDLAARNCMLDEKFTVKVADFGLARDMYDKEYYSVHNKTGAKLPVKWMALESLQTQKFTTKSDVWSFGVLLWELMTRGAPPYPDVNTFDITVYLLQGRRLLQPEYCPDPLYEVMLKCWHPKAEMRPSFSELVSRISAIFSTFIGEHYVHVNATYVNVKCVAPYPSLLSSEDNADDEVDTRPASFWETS

For the molecule `CCN1CCC(COc2cnc(-c3cccc(Cn4c(=O)c(F)cn5c6cc(C#N)ccc6nc45)c3)nc2)CC1` [Hydrochloride of compound 13], the IC50 (usually the concentration at which inhibition is half-maximal) at c-Met enzyme turned out to be 42 nM; in the experiment with EBC-1 cells (Homo sapiens, EBC-1, 72 h), 133 nM.

The molecule `N#Cc1ccc2nc3n(Cc4cccc(-c5ncc(OCC6CCN(C7CCC7)CC6)cn5)c4)c(=O)ccn3c2c1` [Hydrochloride of compound 45] returned an IC50 in the experiment on EBC-1 cells of 19.3 nM.

Take `CN1CCC(COc2cnc(-c3cccc(Cn4c5c(cc(F)c4=O)-c4cc(C#N)ccc4C5(F)F)c3)nc2)CC1` [Hydrochloride of compound 16]: the IC50 at c-Met enzyme was found to be 45 nM; in the experiment on EBC-1 cells (Homo sapiens, EBC-1, 72 h), 135 nM.

For `N#Cc1ccc2nc3n(Cc4cccc(-c5ncc(OCC6CCN(C7COC7)CC6)cn5)c4)c(=O)ccn3c2c1` [Hydrochloride of compound 26], the IC50 against c-Met enzyme stood at 3.12 nM; in the experiment on EBC-1 cells (Homo sapiens, EBC-1, 72 h) it was 16.2 nM.

Turning to `CN1CCC(COc2cnc(-c3cccc(Cn4c5c(ccc4=O)-c4cc(C#N)ccc4C5(F)F)c3)nc2)CC1` [Formate of compound 1], the half-maximal inhibitory concentration (IC50) on c-Met enzyme turned out to be 42 nM; with EBC-1 cells (Homo sapiens, EBC-1, 72 h), 133 nM.

For the molecule `CN1CCC(COc2cnc(-c3cccc(Cn4c(=O)ccn5c6cc(C#N)ccc6cc45)c3)nc2)CC1` [Hydrochloride of compound 10], the IC50 was found to be 15.7 nM at c-Met enzyme and 31.6 nM in the experiment with EBC-1 cells (Homo sapiens, EBC-1, 72 h).

Regarding `COCCN1CCC(COc2cnc(-c3cccc(Cn4c(=O)ccn5c6cc(C#N)ccc6nc45)c3)nc2)CC1` [Hydrochloride of compound 35], the IC50 against c-Met enzyme came out at 11.6 nM; in the experiment with EBC-1 cells (Homo sapiens, EBC-1, 72 h) it was 5.8 nM.

For the molecule `CC(C)N1CCC(COc2cnc(-c3cccc(Cn4c(=O)ccn5c6cc(C#N)cnc6nc45)c3)nc2)CC1` [Hydrochloride of compound 33], in the experiment on EBC-1 cells (Homo sapiens, EBC-1, 72 h), the IC50 was 899 nM.

In the experiment on EBC-1 cells (Homo sapiens, EBC-1, 72 h), `CN(C)CCN1CCC(COc2cnc(-c3cccc(Cn4c(=O)ccn5c6cc(C#N)ccc6nc45)c3)nc2)CC1` [Compound 31] yielded an IC50 of 493 nM.

Turning to `CN1CCC(COc2cnc(-c3cccc(Cn4c(=O)ccc5c4nn4ccc(C#N)cc54)c3)nc2)CC1` [Hydrochloride of compound 27], the IC50 was determined as 17.7 nM against c-Met enzyme and 38 nM in the experiment with EBC-1 cells (Homo sapiens, EBC-1, 72 h).

In turn, `N#Cc1ccc2nc3n(Cc4cccc(-c5ncc(OCC6CCN(C7CCC7)CC6)cn5)c4)c(=O)ccn3c2c1` [Hydrochloride of compound 44] registered an IC50 with EBC-1 cells of 6.83 nM.

`CN1CCC(COc2cnc(-c3cccc(Cn4c5c(ccc4=O)-c4cc(F)ccc4C5=O)c3)nc2)CC1` [Formate of compound 3]: the IC50 against c-Met enzyme was found to be 16 nM; in the experiment on EBC-1 cells (Homo sapiens, EBC-1, 72 h) it was 32.8 nM.

For the molecule `CN1CC2(CC(Oc3cnc(-c4cccc(Cn5c(=O)ccn6c7cc(C#N)ccc7nc56)c4)nc3)C2)C1` [Hydrochloride of compound 28], the IC50 was 58 nM on c-Met enzyme and 66 nM with EBC-1 cells (Homo sapiens, EBC-1, 72 h).

In the case of `CN1CCC(COc2cnc(-c3cccc(Cn4c5c(ccc4=O)-c4cc(C#N)ccc4OC5)c3)nc2)CC1` [Formate of compound 5], the concentration for half-maximal inhibition (IC50) is 131 nM at c-Met enzyme and 585 nM in the experiment on EBC-1 cells (Homo sapiens, EBC-1, 72 h).

In the case of `CN1CCC(COc2cnc(-c3cccc(Cn4c5c(ccc4=O)-c4cc(F)ccc4C5(F)F)c3)nc2)CC1` [Formate of compound 4], half-maximal inhibition at c-Met enzyme (IC50) was put at 167 nM.

The molecule `CN1CCC(COc2cnc(-c3cccc(Cn4c(=O)ccn5c6cc(C#N)cnc6nc45)c3)nc2)CC1` [Hydrochloride of compound 32] had a 50% inhibitory concentration (IC50) in the experiment on EBC-1 cells (Homo sapiens, EBC-1, 72 h) of 816 nM.

On c-Met enzyme, `CS(=O)(=O)CCN1CCC(COc2cnc(-c3cccc(Cn4c(=O)ccn5c6cc(C#N)ccc6nc45)c3)nc2)CC1` [Hydrochloride of compound 42] had an IC50 of 15.2 nM.

The molecule `CN1CCN(C(=O)Oc2cnc(-c3cccc(Cn4c5c(ccc4=O)-c4cc(C#N)ccc4C5=O)c3)nc2)CC1` [Hydrochloride of compound 20] yielded an IC50 at c-Met enzyme of 26 nM.

In the case of `CCCN1CCC(COc2cnc(-c3cccc(Cn4c(=O)ccn5c6cc(C#N)ccc6nc45)c3)nc2)CC1` [Hydrochloride of compound 43], the IC50 in the experiment on EBC-1 cells (Homo sapiens, EBC-1, 72 h) came out at 7.32 nM.

`CC(C)N1CC(COc2cnc(-c3cccc(Cn4c(=O)ccn5c6cc(C#N)ccc6nc45)c3)nc2)C1` [Hydrochloride of compound 46]: the IC50 in the experiment with EBC-1 cells (Homo sapiens, EBC-1, 72 h) came out at 12.2 nM.
